Broadly, the EC50 is the concentration at which the effect is half-maximal. Usually AUC(0-inf) stands for the area under the concentration-time curve extrapolated to infinity. In general, bioavailability refers to the share of a dose that reaches the circulation, judged against a reference dose that is usually intravenous. What is called half-life is how long it takes for the measured level to halve. By IC50 is commonly meant the concentration that gives 50% inhibition.

In one data set the test system is Juvenile S. mansoni. Description: In vitro juvenile (3 week old) S. mansoni worm assay. The data set is classed as cell-based. Conditions: Schistosoma mansoni; for EC50: Table 2, in vitro, 120 h incubation. The text has this:
(§1) The Puerto Rican strain of S. mansoni was maintained in Biomphalaria glabrata and CD1 mice. Oncomelania hupensis (hupensis) infected with S. japonicum (Chinese strain) and Bulinus truncatus (truncatus) infected with Egyptian strain S. haematobium were obtained from BEI Resources, NIAID, NIH. Infection of mice for worm recovery was as previously described except that, whereas cercariae of S. mansoni and S. haematobium were obtained by shedding from infected snails under lights, cercariae of S. japonicum were obtained by gently crushing the snails. Furthermore, adult S. haematobium were recovered after 12 weeks following mouse infection.
(§2) In vitro efficacy was carried out as previously described. In brief, worms were recovered from infected mice by portal perfusion 3 weeks (for juveniles) or 6 weeks (for adults) post-infection using warm perfusion medium (Dulbecco’s Modified Eagle’s Medium [DMEM], 2mM L-glutamine, 100 Units/ml penicillin, 100μg/ml streptomycin, 20mM Hepes, 10 Units/ml heparin [Sigma, UK]). Worms were washed free of red blood cells using the perfusion medium, and finally suspended in complete medium (cDMEM: DMEM, 2mM L-glutamine, 100 Units/ml penicillin, 100μg/ml streptomycin, 10% FCS). The juvenile assays were carried out in 96-well plates, each well containing 6–8 worms in 200 μL cDMEM. The adult worm assay was in 24-well plates, each well containing 3 worm pairs in 1mL cDMEM. Both the juvenile and adult worm cultures were kept at 37° C, in an atmosphere of 5% CO2. Drug effects were determined on day 5 following drug treatment by assessing the viability of individual worms as described in [14].

The nature of data set [1]: In vivo efficacy, mouse model of juvenile (21-day old) S. mansoni infection. Particulars: female, CD1, plasma, mouse, Juvenile infection, read-out: Plasma conc @24 h (efficacy experiment). Here is the method:
(§3) Prior to in vivo efficacy experiments, a single animal was given a dose of drug (using the same formulation) that was twice as large as that planned for use in the efficacy experiments and was observed periodically for adverse clinical signs for 24h by trained veterinarians. Adverse clinical signs checked include postural defect, vocalization, oculo-nasal discharge, hypersalivation, change in activity, abnormal gait, respiration and pulse, piloerection, loss of pupillary reflex, eyelid reflex, chromodacryorrhea, reaction to handling, tremor, convulsions, prostration, diarrhoea, cachexia, emaciation. […] In vivo efficacy was assessed in female CD1 mice using methods based on those previously described. Mice were infected subcutaneously with 150 cercariae. Test compounds were suspended in 7% Tween-80 / 3% Ethanol / double distilled water and drug dispersal was facilitated by vortexing and using a sonicating water bath (Formulation “Aqueous”). Alternatively, drugs were first dissolved in DMSO, then diluted with corn oil to give a 1:19 DMSO:corn oil solution/suspension of test compound (Formulation “Corn oil”). Dosing was by oral gavage. Mice in the negative control groups were given the drug suspension vehicle only. Positive controls for treatment of adult, day 42 old, infections were treated with PZQ and those for juvenile, day 21 old, infections with artemether, which unlike PZQ is effective against the juvenile worm infections in mice. During and following treatment, mice were closely observed for any ill effects by staff experienced in animal handling. This involved individuals who were blinded to the treatment groups. Effects they were trained to look for included hunching, immobility, piloerection, subdued behaviour, diarrhoea and loss of body condition. None were seen. Worms were recovered by portal perfusion with citrate saline 8–14 days post treatment and counted. Differences between groups relative to the non-drug treated controls were assessed for statistical significance by Student’s unpaired t-test using GraphPad Prism Software. P values are presented as follows:- ns–P > 0.05 (not significant), * P ≤ 0.05, ** P ≤ 0.01, *** P ≤ 0.001, **** P ≤ 0.0001.
(§4) For pharmacokinetic analysis during the in vivo efficacy experiments individual animals were only sampled once. Samples were taken from one animal in each experimental group at each of 1, 4, 8 h and samples from two animals in each group were taken at 24 h.

Data set [2] has as its system S. mansoni juvenile worms. The data set is described as above. Particulars: for Worms remaining: Juvenile infection; for in vivo EC50 against juvenile worms: mouse model, single oral dose (Fig 9C); for clearing juvenile worm infections in vivo: 12.5 mg/kg oral single dose (Fig 9D); for worm reduction: juvenile worms. Here is the method: as §3, §4
Another data set in a line: Mouse pharmacokinetics.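 For all read-outs here: three mice per experiment, dosed in 10% DMSO with 50 mM Na2HPO4 buffer plus Tween-80, plasma levels quantified by LC-MS against a calibration line prepared in blank matrix.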 Conditions: for Vd: read-out: Vss; for bioavailability: 2.5 mg/kg oral, calculated values > 100% shown as 100; for half-life: iv. In kind it is in vivo.
Data set [3] is described as follows: Human dose prediction with the PK Tool. Particulars: PK Tool; predicted plasma conc at 24 h 7 fold above calculated adult worm blood potency. From the text:
• We assume that the plasma concentration achieved in mouse sufficient to kill worms is the same as the plasma concentration we need to achieve in humans to see the same effect. A component element is an assumption that the mechanism of S. mansoni worm reduction in mouse and human are the same. • We assume that allometric scaling can be used to estimate human clearance based on mouse clearance. One factor that would make this assumption unsafe is if the clearance mechanisms and rates for our series in mouse and human were different. Fortunately, in vivo clearance correlates well with metabolic stability calculated from in vitro mouse hepatocyte measurements (Fig 7A). In vitro stability estimates in mouse and human hepatocytes are also fairly well correlated (Fig 7B).
Estimates of dose prediction in human were made using the PK Tool. A simple estimate of an effective human dose for LSHTM-3520 can be made by making the assumption that a plasma concentration of 2,000 ng/mL 24 h after oral administration (the same as that achieved in Fig 6B) would give sufficient clinical efficacy. […] To design compounds with a lower predicted human dose we pursued two strategies, one to improve potency by optimisation of the core and substituents, the other to decrease clearance through blocking positions we thought likely to be vulnerable to metabolic enzymes and/or conformational restriction.
Assuming linear kinetics the plasma levels scaled from the low-dose oral PK experiment (2.5 mg/kg) for LSHTM-3520 (8 ng/mL) after 24 h would be 160 ng/mL from […] and 640 ng/mL at […].

In a further data set the test system is Adult S. mansoni. The data set can be described thus: In vitro adult S. mansoni worm assay. In kind it is cell-based. Particulars: Schistosoma mansoni, 120 h incubation.
Source text: as §1, §2

Where [4] appears, read: 0.5 mg/kg iv, in a mixture of 5 compounds.
Setting [5] is: male, Swiss albino, plasma, 0.5 mg/kg iv, in a mixture of 5 compounds.
[6] abbreviates: male, Swiss albino, plasma, mixture of 5 compounds.
The mark [7] stands for this setting: male, Swiss albino, plasma, 0.5 mg/kg, 0.5 mg/kg iv, in a mixture of 5 compounds, sampled over 24 h.
[8] abbreviates: Table 2, in vitro, read-out: Adult S. mansoni EC50.
[9] abbreviates: Table 3, S. mansoni, read-out: Sm adult EC50.
Where [10] appears, read: oral 12.5 mg/kg, formulation corn oil.
The mark [11] stands for this setting: mouse, oral 12.5 mg/kg, formulation corn oil.

≈ marks a conversion by molar mass, not a printed value. Read-outs that look alike come from different tables or passages of the source.

Protocol for Mouse pharmacokinetics: Routine pharmacokinetics was carried out as previously described [24] with the following modifications: Swiss albino male mice of average weight 30 g with three animals per experiment. The final vehicle was 10% DMSO, 90% 50 mM Na2HPO4 with 0.5% Tween-80. Compounds were dosed singly (at a variety of doses as noted in the text) or more commonly in mixtures of 5 at 1 mg/kg per compound iv into the lateral tail vein or 2.5 mg/kg per compound by oral gavage. ~30 μl blood samples were taken by venepuncture, into heparinized capillary tubes and subsequently transferred into 0.5 ml micro-centrifuge tubes. Collection time points were 5 min (iv only), 15 min, 30 min, 1 h, 2 h, 4 h, 8 h & 24 h. All blood samples were processed for plasma by centrifugation at 4,000 rpm for 10 min at 4°C within half an hour of collection. Plasma samples were stored at -20°C until bioanalysis.
Prior to LC-MS analysis, all samples were extracted using protein precipitation using acetonitrile as the extraction solvent. For each batch of samples, a calibration line spanning an appropriate concentration range was created by spiking the compound of interest into blank matrix. The calibration line included 10 evenly spaced points. […] Where necessary, additional dilution QCs were included to validate the dilution process. Within each batch at least 3 study samples were assayed pre and post dilution to assess whether there was any impact from the presence of dosing vehicle in the samples. A linear regression was performed on peak area response ratios (analyte:IS) and the results used to back-calculate analyte concentrations. A batch of samples were considered acceptable if 75% of the calibration samples and 66% of the standard QC samples were within 20% of nominal. The linear range of the assay was defined by the calibration line ±20% i.e. the maximum reportable concentration was 120% of the highest concentration calibration sample that passed acceptance criteria. A metric plot of the IS response was reviewed to ensure the integrity of the study sample data.

`CC(C)c1cc(-c2cn3c(-c4ccc5[nH]ncc5c4F)c(C4CC4)nc3cn2)ccc1F` [LSHTM-3686]: the values for the EC50 with Juvenile S. mansoni, in the data set on Adult S. mansoni (setting [8]) and in the data set on Adult S. mansoni (setting [9]) were 4.1 nM, 5.4 nM and 5.4 nM, respectively. Also, in data set [1] (oral 6.25x2 mg/kg (12 h apart), formulation corn oil), the concentration at 24 h amounted to 37.2 ng/mL. Further, the Worms remaining in data set [2] (mouse, oral 6.25x2 mg/kg (12 h apart), formulation corn oil) turned out to be 25%. The worm burden reduction in data set [2] (mouse, juvenile infection, 6.25 mg/kg given twice 12 h apart) was found to be 75%. The Clobs in the data set “Mouse pharmacokinetics” (setting [4]) was found to be 15.7 mL/min/kg. Further, in the data set “Mouse pharmacokinetics” (0.5 mg/kg iv, in a mixture of 5 compounds, sampled over 24 h, 0.5 mg/kg), the half life was 6.2 h. In the data set “Mouse pharmacokinetics” (setting [5]), the AUC(0-inf) amounted to 500 ng·h/mL. The Vd in “Mouse pharmacokinetics” (setting [5]) worked out at 3.9 L/kg. In addition, in the data set “Mouse pharmacokinetics” (setting [6]), the bioavailability was 100%. For the same compound, the half-life in “Mouse pharmacokinetics” (setting [7]) is 6 h. In addition, the “human single oral dose prediction” value in data set [3] is 1 mg/kg.
`Fc1ccc(-c2cn3c(-c4ccc5[nH]ncc5c4F)c(C(F)(F)F)nc3cn2)cc1C(F)(F)C(F)(F)F` [LSHTM-3645]: the EC50 came out at 10.7 nM in the data set on Juvenile S. mansoni, 9.7 nM in the data set with Adult S. mansoni (setting [8]) and 9.7 nM in the data set with Adult S. mansoni (setting [9]). The concentration at 24 h was 708 ng/mL in data set [1] (oral 6.25 mg/kg, formulation corn oil) and 984 ng/mL in data set [1] (setting [10]). In data set [2], the “in vivo EC50 against juvenile worms” value was “below 6.25 mg/kg”. Also, the “clearing juvenile worm infections in vivo” value in data set [2] (mouse) is “extremely effective”. In addition, the Worms remaining is 1.8% in data set [2] (mouse, oral 6.25 mg/kg, formulation corn oil) and 0% in data set [2] (setting [11]). The compound further gave a worm reduction in data set [2] (mouse, single oral dose 6.25 mg/kg) of 98%. Further, the Clobs in “Mouse pharmacokinetics” (setting [4]) is 3.5 mL/min/kg. Further, the AUC(0-inf) in “Mouse pharmacokinetics” (setting [5]) amounted to 2400 ng·h/mL. Further, in the data set “Mouse pharmacokinetics” (setting [5]), the Vd stood at 6.4 L/kg. Also, the bioavailability in “Mouse pharmacokinetics” (setting [6]) was 100%. For the same compound, the half-life in the data set “Mouse pharmacokinetics” (setting [7]) is 23.4 h. Also, in data set [3], the “human single oral dose prediction” value was 3.5 mg/kg.
On to `Fc1ccc(-c2cn3c(-c4ccc5[nH]ncc5c4F)c(C(F)(F)F)nc3cn2)cc1C(F)(F)F` [LSHTM-3642, 3-(4-fluoro-1H-indazol-5-yl)-6-(4-fluoro-3-(trifluoromethyl)phenyl)-2-(trifluoromethyl)imidazo[1,2-a]pyrazine], for which the EC50 with Juvenile S. mansoni came out at 48 nM; in the data set with Adult S. mansoni (setting [8]), 27 nM; with Adult S. mansoni (setting [9]), 27.3 nM. In addition, the concentration at 24 h in data set [1] (setting [10]) came out at 1320 ng/mL; in data set [1] (oral 25 mg/kg, formulation Aq) it was 1700 ng/mL. Besides, the Worms remaining worked out at 5% in data set [2] (setting [11]) and 1.8% in data set [2] (mouse, oral 25 mg/kg, formulation Aq). In addition, the Clobs in “Mouse pharmacokinetics” (setting [4]) is 2.17 mL/min/kg. Moreover, the “Plasma conc @ 24 h after oral dose” value in the data set “Mouse pharmacokinetics” ([…] oral, mixture of 5 compounds) was found to be 227 ng/mL. For the same compound, the area under the curve AUC(0-inf) in “Mouse pharmacokinetics” (setting [5]) was determined as 5500 ng·h/mL. The Vd in “Mouse pharmacokinetics” (setting [5]) is 8.7 L/kg. Further, the bioavailability in “Mouse pharmacokinetics” (setting [6]) was 83%. Moreover, the “human single oral dose prediction” value in data set [3] is recorded as 20 mg/kg.
On to `Fc1c(-c2c(C(F)(F)F)nc3cnc(-c4cccc(C(F)(F)C(F)(F)F)c4)cn23)ccc2[nH]ncc12` [LSHTM-3608], for which the concentration for a half-maximal effect (EC50) is 21 nM in the data set with Juvenile S. mansoni, 15.3 nM in the data set with Adult S. mansoni (setting [8]) and 15.3 nM with Adult S. mansoni (setting [9]). For the same compound, in data set [1] (setting [10]), the concentration at 24 h turned out to be 879 ng/mL. The “in vivo EC50 against juvenile worms” value in data set [2] is given as “below 6.25 mg/kg”. Moreover, the “clearing juvenile worm infections in vivo” value in data set [2] (mouse) is given as “extremely effective”. Besides, in data set [2] (setting [11]), the Worms remaining amounted to 0%. For the same compound, in data set [2] (mouse, single oral dose 12.5 mg/kg), the worm reduction came out at 100%. The Clobs in the data set “Mouse pharmacokinetics” (setting [4]) amounted to 1.5 mL/min/kg. In addition, the AUC(0-inf) in the data set “Mouse pharmacokinetics” (setting [5]) came out at 6200 ng·h/mL. Also, the Vd in “Mouse pharmacokinetics” (setting [5]) stood at 4 L/kg. Further, the bioavailability in the data set “Mouse pharmacokinetics” (setting [6]) is 100%. The half-life in the data set “Mouse pharmacokinetics” (setting [7]) is 37.1 h. In addition, in data set [3], the “human single oral dose prediction” value is reported as 2.5 mg/kg.
On to `CC(C)c1nc2cnc(-c3ccc(F)c(C(F)(F)F)c3)cn2c1-c1ccc2[nH]ncc2c1F` [LSHTM-3604], for which, in the data set with Juvenile S. mansoni (10 fold the in vitro value (assay run at 10% of whole blood protein), read-out: calculated whole blood IC50), the half-maximal inhibitory concentration (IC50) is 0.152 µg/mL (≈ 0.332 µM). For the same compound, the EC50 with Juvenile S. mansoni amounted to 33.2 nM; in the data set on Adult S. mansoni (setting [8]), 31.5 nM. The concentration at 24 h stood at 223 ng/mL in data set [1] (oral 25 mg/kg, formulation corn oil); 505 ng/mL in data set [1] (oral 50 mg/kg, formulation Aq); 1430 ng/mL in “Mouse pharmacokinetics” (male, Swiss albino, plasma, oral, plasma level after 24 h scaled from […] dose, scaled to the efficacy dose (dose not given), read-out: plasma level after 24 h scaled from 2.5 mg/kg dose). Besides, the “efficacy in vivo against juvenile worm infection” value in data set [2] (mouse, 21-day old infections, single oral dose, Aqueous formulation (Fig 8)) was “effective”. For the same compound, the Worms remaining in data set [2] (mouse, oral 25 mg/kg, formulation corn oil) was determined as 13%; in data set [2] (mouse, oral 50 mg/kg, formulation Aq) it was 12%. For the same compound, the Clobs in the data set “Mouse pharmacokinetics” (setting [4]) amounted to 4.33 mL/min/kg. Moreover, the “scaled plasma level, fold above the calculated whole blood IC50” value in “Mouse pharmacokinetics” (24 h, efficacy dose (dose not given)) was 9.4 fold. In addition, the total exposure AUC(0-inf) in the data set “Mouse pharmacokinetics” (setting [5]) was 1900 ng·h/mL. Besides, the Vd in the data set “Mouse pharmacokinetics” (setting [5]) came out at 3.4 L/kg. Moreover, in the data set “Mouse pharmacokinetics” (setting [6]), the bioavailability was 60%. Moreover, the half-life in the data set “Mouse pharmacokinetics” (setting [7]) is 10.5 h. In addition, the “human single oral dose prediction” value in data set [3] is given as 6 mg/kg.
